# From US10821115B2, “Compounds that inhibit Mcl-1 protein” (priority 2017, dated 2020)
# Assays:
# [1] = biological target: recombinant human Mcl-1 (residues 171-327) / Bim interaction (Homo sapiens (Human), UniProt Q07820); assay: biochemical; assay type: binding; details: TR-FRET, Mcl-1(171-327) / biotin-Bim (51-76); read-out: Mcl-1 HTRF IC50
# [2] = tested on: human multiple myeloma cell line, OPM-2; assay: Cell viability assay (OPM-2 10 FBS), CellTiter-Glo; assay type: cell-based; details: Homo sapiens, OPM-2, 16 h, read-out: OPM-2 10% FBS IC50 IP, OPM-2 cells, 10% FBS, 16 h, CellTiter-Glo
# Summary of the method: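 IC50 values come from 4-parameter logistic fits of luminescence signals reflecting cell viability. Treatment lasted 16 h at 37 °C in complete medium with 10% FBS, starting from 3000 cells/well.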
# Chain of recombinant human Mcl-1 (residues 171-327) / Bim interaction (Q07820 171-327): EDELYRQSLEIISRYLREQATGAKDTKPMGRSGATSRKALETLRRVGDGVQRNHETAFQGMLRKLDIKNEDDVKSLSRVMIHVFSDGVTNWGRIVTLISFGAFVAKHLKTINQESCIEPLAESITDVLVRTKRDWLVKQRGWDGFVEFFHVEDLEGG
Structure (SMILES),IC50 [1] [nM],IC50 [2] [nM]
"CO[C@@]1(Cc2cc(C)ccn2)/C=C/C[C@H](C)[C@@H](C)S(=O)(=O)NC(=O)c2ccc3c(c2)N(C[C@@H]2CC[C@H]21)C[C@@]1(CCCc2cc(Cl)ccc21)CO3 [Example 100560, (1S,3′R,6′R,7′S,8′E,11′S,12′R)-6-chloro-7′-methoxy-11′,12′-dimethyl-7′-((4-methyl-2-pyridinyl)methyl)-3,4-dihydro-2H,15′H-spiro[naphthalene-1,22′-[20]oxa[13]thia[1,14]diazatetracyclo [14.7.2.0~3,6~.0~19,24~]pentacosa[8,16,18,24]tetraen]-15′-one 13′,13′-dioxide]",0.041,2020
"C=C(F)C[C@@]1(O)/C=C/C[C@H](C)[C@@H](C)S(=O)(=O)NC(=O)c2ccc3c(c2)N(C[C@@H]2CC[C@H]21)C[C@@]1(CCCc2cc(Cl)ccc21)CO3 [Example 100564, (1S,3′R,6′R,7′R,8′E,11′S,12′R)-6-chloro-7′-(2-fluoro-2-propen-1-yl)-7′-hydroxy-11′,12′-dimethyl-3,4-dihydro-2H,15′H-spiro[naphthalene-1,22′-[20]oxa[13]thia[1,14]diazatetracyclo [14.7.2.0~3,6~.0~19,24~]pentacosa[8,16,18,24]tetraen]-15′-one 13′,13′-dioxide]",0.333,1430
"C=C(F)C[C@]1(O)/C=C/C[C@H](C)[C@@H](C)S(=O)(=O)NC(=O)c2ccc3c(c2)N(C[C@@H]2CC[C@H]21)C[C@@]1(CCCc2cc(Cl)ccc21)CO3 [Example 100565, (1S,3′R,6′R,7′S,8′E,11′S,12′R)-6-chloro-7′-(2-fluoro-2-propen-1-yl)-7′-hydroxy-11′,12′-dimethyl-3,4-dihydro-2H,15′H-spiro[naphthalene-1,22′-[20]oxa[13]thia[1,14]diazatetracyclo [14.7.2.0~3,6~.0~19,24~]pentacosa[8,16,18,24]tetraen]-15′-one 13′,13′-dioxide]",1.54,2060
"C[C@@H]1CS(=O)(=O)NC(=O)c2ccc3c(c2)N(C[C@@H]2CC[C@H]2[C@](O)(C2SCCCS2)/C=C/[C@@H]1C)C[C@@]1(CCCc2cc(Cl)ccc21)CO3 [Example 100566, (1S,3′R,6′R,7′S,8′E,10′S,11′S)-6-chloro-7′-(1,3-dithian-2-yl)-7′-hydroxy-10′,11′-dimethyl-3,4-dihydro-2H,15′H-spiro[naphthalene-1,22′-[20]oxa[13]thia[1,14]diazatetracyclo [14.7.2.0~3,6~.0~19,24~]pentacosa[8,16,18,24]tetraen]-15′-one 13′,13′-dioxide]",0.142,590
"CO[C@@]1(C2SCCCS2)/C=C/[C@H](C)[C@H](C)CS(=O)(=O)NC(=O)c2ccc3c(c2)N(C[C@@H]2CC[C@H]21)C[C@@]1(CCCc2cc(Cl)ccc21)CO3 [Example 100567, (1S,3′R,6′R,7′S,8′E,10′S,11′S)-6-chloro-7′-(1,3-dithian-2-yl)-7′-methoxy-10′,11′-dimethyl-3,4-dihydro-2H,15′H-spiro[naphthalene-1,22′-[20]oxa[13]thia[1,14]diazatetracyclo [14.7.2.0~3,6~.0~19,24~]pentacosa[8,16,18,24]tetraen]-15′-one 13′,13′-dioxide]",0.125,249
"C=C(F)C[C@@]1(OC)/C=C/C[C@H](C)[C@@H](C)S(=O)(=O)NC(=O)c2ccc3c(c2)N(C[C@@H]2CC[C@H]21)C[C@@]1(CCCc2cc(Cl)ccc21)CO3 [Example 100568, (1S,3′R,6′R,7′R,8′E,11′S,12′R)-6-chloro-7′-(2-fluoro-2-propen-1-yl)-7′-methoxy-11′,12′-dimethyl-3,4-dihydro-2H,15′H-spiro[naphthalene-1,22′-[20]oxa[13]thia[1,14]diazatetracyclo [14.7.2.0~3,6~.0~19,24~]pentacosa[8,16,18,24]tetraen]-15′-one 13′,13′-dioxide]",0.431,1540
"CO[C@]1(C2SCCCS2)/C=C/[C@H](C)[C@H](C)CS(=O)(=O)NC(=O)c2ccc3c(c2)N(C[C@@H]2CC[C@H]21)C[C@@]1(CCCc2cc(Cl)ccc21)CO3 [Example 100569, (1S,3′R,6′R,7′R,8′E,10′S,11′S)-6-chloro-7′-(1,3-dithian-2-yl)-7′-methoxy-10′,11′-dimethyl-3,4-dihydro-2H,15′H-spiro[naphthalene-1,22′-[20]oxa[13]thia[1,14]diazatetracyclo [14.7.2.0~3,6~.0~19,24~]pentacosa[8,16,18,24]tetraen]-15′-one 13′,13′-dioxide]",2.48,2000
"CO[C@@]1(Cc2nc(CO)co2)/C=C/C[C@H](C)[C@@H](C)S(=O)(=O)NC(=O)c2ccc3c(c2)N(C[C@@H]2CC[C@H]21)C[C@@]1(CCCc2cc(Cl)ccc21)CO3 [Example 100570, (1S,3′R,6′R,7′S,8′E,11′S,12′R)-6-chloro-7′-((4-(hydroxymethyl)-1,3-oxazol-2-yl)methyl)-7′-methoxy-11′,12′-dimethyl-3,4-dihydro-2H,15′H-spiro[naphthalene-1,22′-[20]oxa[13]thia[1,14]diazatetracyclo [14.7.2.0~3,6~.0~19,24~]pentacosa[8,16,18,24]tetraen]-15′-one 13′,13′-dioxide]",3.38,5050
"COCC[C@@H]1[C@@H](C)C/C=C/[C@@](C=O)(OC)[C@@H]2CC[C@H]2CN2C[C@@]3(CCCc4cc(Cl)ccc43)COc3ccc(cc32)C(=O)NS1(=O)=O [Example 100571, (1S,3′R,6′R,7′R,8′E,11′S,12′R)-6-chloro-7′-methoxy-12′-(2-methoxyethyl)-11′-methyl-15′-oxo-3,4-dihydro-2H-spiro[naphthalene-1,22′-[20]oxa[13]thia[1,14]diazatetracyclo [14.7.2.0~3,6~.0~19,24~]pentacosa[8,16,18,24]tetraene]-7′-carbaldehyde 13′,13′-dioxide]",0.076,922
"Cc1ncoc1C[C@]1(O)/C=C/C[C@H](C)[C@@H](C)S(=O)(=O)NC(=O)c2ccc3c(c2)N(C[C@@H]2CC[C@H]21)C[C@@]1(CCCc2cc(Cl)ccc21)CO3 [Example 100572, (1S,3′R,6′R,7′S,8′E,11′S,12′R)-6-chloro-7′-hydroxy-11′,12′-dimethyl-7′-((4-methyl-1,3-oxazol-5-yl)methyl)-3,4-dihydro-2H,15′H-spiro[naphthalene-1,22′-[20]oxa[13]thia[1,14]diazatetracyclo [14.7.2.0~3,6~.0~19,24~]pentacosa[8,16,18,24]tetraen]-15′-one 13′,13′-dioxide]",0.174,1160
"Cc1onc(C[C@@]2(O)/C=C/C[C@H](C)[C@@H](C)S(=O)(=O)NC(=O)c3ccc4c(c3)N(C[C@@H]3CC[C@H]32)C[C@@]2(CCCc3cc(Cl)ccc32)CO4)c1C [Example 100573, (1S,3′R,6′R,7′R,8′E,11′S,12′R)-6-chloro-7′-((4,5-dimethyl-1,2-oxazol-3-yl)methyl)-7′-hydroxy-11′,12′-dimethyl-3,4-dihydro-2H,15′H-spiro[naphthalene-1,22′-[20]oxa[13]thia[1,14]diazatetracyclo [14.7.2.0~3,6~.0~19,24~]pentacosa[8,16,18,24]tetraen]-15′-one 13′,13′-dioxide]",2.07,7390
"CO[C@]1(Cc2noc(C)c2C)/C=C/C[C@H](C)[C@@H](C)S(=O)(=O)NC(=O)c2ccc3c(c2)N(C[C@@H]2CC[C@H]21)C[C@@]1(CCCc2cc(Cl)ccc21)CO3 [Example 100574, (1S,3′R,6′R,7′R,8′E,11′S,12′R)-6-chloro-7′-((4,5-dimethyl-1,2-oxazol-3-yl)methyl)-7′-methoxy-11′,12′-dimethyl-3,4-dihydro-2H,15′H-spiro[naphthalene-1,22′-[20]oxa[13]thia[1,14]diazatetracyclo [14.7.2.0~3,6~.0~19,24~]pentacosa[8,16,18,24]tetraen]-15′-one 13′,13′-dioxide]",1.42,4320
"CO[C@@]1(CC(=O)On2nnc3cccnc32)/C=C/C[C@H](C)[C@@H](C)S(=O)(=O)NC(=O)c2ccc3c(c2)N(C[C@@H]2CC[C@H]21)C[C@@]1(CCCc2cc(Cl)ccc21)CO3 [Example 100576, (1S,3′R,6′R,7′S,8′E,11′S,12′R)-6-chloro-7′-methoxy-11′,12′-dimethyl-7′-(2-oxo-2-(3H-[1,2,3]triazolo[4,5-b]pyridin-3-yloxy)ethyl)-3,4-dihydro-2H,15′H-spiro[naphthalene-1,22′-[20]oxa[13]thia[1,14]diazatetracyclo [14.7.2.0~3,6~.0~19,24~]pentacosa[8,16,18,24]tetraen]-15′-one 13′,13′-dioxide]",1.15,4090
"Cc1onc(C[C@]2(O)/C=C/C[C@H](C)[C@@H](C)S(=O)(=O)NC(=O)c3ccc4c(c3)N(C[C@@H]3CC[C@H]32)C[C@@]2(CCCc3cc(Cl)ccc32)CO4)c1C [Example 100578, (1S,3′R,6′R,7′S,8′E,11′S,12′R)-6-chloro-7′-((4,5-dimethyl-1,2-oxazol-3-yl)methyl)-7′-hydroxy-11′,12′-dimethyl-3,4-dihydro-2H,15′H-spiro[naphthalene-1,22′-[20]oxa[13]thia[1,14]diazatetracyclo [14.7.2.0~3,6~.0~19,24~]pentacosa[8,16,18,24]tetraen]-15′-one 13′,13′-dioxide]",0.089,595
"COC(=O)c1nc(C[C@]2(OC)/C=C/C[C@H](C)[C@@H](C)S(=O)(=O)NC(=O)c3ccc4c(c3)N(C[C@@H]3CC[C@H]32)C[C@@]2(CCCc3cc(Cl)ccc32)CO4)oc1C [Example 100583, methyl 2-(((1S,3′R,6′R,7′S,8′E,11′S,12′R)-6-chloro-7′-methoxy-11′,12′-dimethyl-13′,13′-dioxido-15′-oxo-3,4-dihydro-2H-spiro[naphthalene-1,22′-[20]oxa[13]thia[1,14]diazatetracyclo [14.7.2.0~3,6~.0~19,24~]pentacosa[8,16,18,24]tetraen]-7′-yl)methyl)-5-methyl-1,3-oxazole-4-carboxylate]",0.124,411
